Measurements: US20220306603A1, “TARGETING DNA REPAIR IN TUMOR CELLS VIA INHIBITION OF ERCC1-XPF” (The Governors of the University of Alberta, priority 2019, published 2022)
“Also recorded” adds a separate entry of the source.

Columns and labels:
ERCC1-XPF = target: T1, ERCC1-XPF (Homo sapiens, UniProt Q92889); assay: Microplate fluorescence incision assay of ERCC1-XPF endonuclease activity; type: biochemical; settings: for inhibition of ERCC1-XPF endonuclease activity (in words): compounds 10 μM each; for IC50: full-length ERCC1-XPF, 30 minutes incubation, 5% DMSO, read-out: IC50 of ERCC1-XPF endonuclease activity
T1 construct: His6; made in house; host or cells: E. coli BL21 (DE3)
T1 sequence (Q92889 1-916): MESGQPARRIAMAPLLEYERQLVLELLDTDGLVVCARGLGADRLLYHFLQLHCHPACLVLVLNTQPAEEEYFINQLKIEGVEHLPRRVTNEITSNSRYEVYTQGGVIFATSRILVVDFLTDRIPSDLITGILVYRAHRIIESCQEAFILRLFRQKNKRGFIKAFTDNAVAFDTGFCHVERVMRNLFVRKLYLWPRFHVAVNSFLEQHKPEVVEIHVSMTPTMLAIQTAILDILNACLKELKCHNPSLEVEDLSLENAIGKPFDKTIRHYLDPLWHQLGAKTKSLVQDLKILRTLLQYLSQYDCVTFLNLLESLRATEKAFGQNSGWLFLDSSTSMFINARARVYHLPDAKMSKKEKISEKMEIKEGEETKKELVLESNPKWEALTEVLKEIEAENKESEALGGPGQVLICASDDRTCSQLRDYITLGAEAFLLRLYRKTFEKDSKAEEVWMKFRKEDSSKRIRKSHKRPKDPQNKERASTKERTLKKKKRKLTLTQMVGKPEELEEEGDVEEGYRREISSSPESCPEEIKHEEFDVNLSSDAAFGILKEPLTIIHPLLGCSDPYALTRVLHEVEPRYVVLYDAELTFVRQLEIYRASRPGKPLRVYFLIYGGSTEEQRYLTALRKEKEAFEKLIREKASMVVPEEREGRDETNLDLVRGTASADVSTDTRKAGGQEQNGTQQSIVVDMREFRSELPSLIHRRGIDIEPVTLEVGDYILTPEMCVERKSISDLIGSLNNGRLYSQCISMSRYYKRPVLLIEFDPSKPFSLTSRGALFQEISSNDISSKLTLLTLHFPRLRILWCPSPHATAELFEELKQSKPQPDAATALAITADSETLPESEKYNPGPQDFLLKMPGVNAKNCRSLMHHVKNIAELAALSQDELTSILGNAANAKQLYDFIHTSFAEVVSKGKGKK
Excerpt: This assay has been previously described (29), and utilizes a stem-loop substrate (composed of a 10mer-duplex stem and a 20mer-oligodT single-strand loop), labelled on the 5′-terminus with 6-FAM and 3′ with the quencher dabcyl.
Human ERCC1-XPF wild-type protein was obtained as previously described (29). Basically, the recombinant protein was expressed from a bicistronic plasmid (provided by Dr. Richard Wood, University of Texas MD Anderson Cancer Center, Smithville, Tex.) in the E. coli BL21 (DE3) strain. Since both XPF and ERCC1 contained a polyhistidine (His-6) tag, the proteins extracted from E. coli were incubated with a ProBond Nickel-Chelating Resin (Thermo Fisher Scientific). Protein eluted from the Ni affinity column was subsequently loaded into a Hi-trap heparin column (GE Healthcare). Fractions recovered from the heparin column that contained ERCC1-XPF were dialyzed, concentrated and stored at −80° C. in 10 mM HEPES pH 7.4, 2.5 mM p-mercaptoethanol, 0.01% CHAPS, 0.25 mM EDTA, 50% glycerol and 25 mM NaCl.
A previously described protocol (2,29) was followed.

[1] = ADME screening: solubility; type: physicochemical; settings: Table 8
HCT116 cells [2] = assay: Clonogenic survival assay, cyclophosphamide treatment; type: cell-based, human; settings: cyclophosphamide 0-300 μM; compound 1-4 μM
Experimental: Plates were incubated for another 8 days at 37° C. in a 5% CO2 atmosphere for colony formation. After this period plates were stained with crystal violet, colonies were counted, and plating efficiency and surviving fraction were calculated.

HCT116 cells [3] = assay: Cytotoxicity profile: crystal violet viability assay (and colony forming assay); type: cell-based, human
Experimental: Crystal violet viability assays were carried out to assess the cellular toxicity of these compounds to HCT116 cells and to choose relatively non-cytotoxic concentrations to be further utilised in sensitizing cells to UV radiation or cyclophosphamide.
The beneficial effect is especially visible at a concentration of 5.0 μM. At higher concentrations, both compounds show an equal cytotoxic effect (FIG. 15).

HCT116 cells [4] = assay: Cellular repair of UV-induced cyclobutane pyrimidine dimers (immunofluorescence); type: cell-based, human; settings: 8 J/m^2 UV-C, up to 24 h post-irradiation
Experimental: Protocol of Mirzayans et al. was followed with minor modifications (30). Approximately 1×10^5 HCT116 cells were seeded on each coverslip and allowed to attach overnight. Medium was then removed and cells were treated for one hour with the desired compound. The medium was removed, and cells were exposed to 8 J/m^2 UV-C radiation (G15T8 254 nm lamp, Ushio America Inc, Cypress, Calif.) followed by adding fresh medium containing the compound. Plates were incubated at 37° C. for different periods of time up to 24 hours and fixed in 50:50 methanol/1× phosphate-buffered saline (PBS) solution, followed by replacing the methanol/PBS solution with 100% methanol and incubation in −20° C. After 20 minutes, methanol was removed, and cells were treated with PBS for 5 minutes in room temperature. After fixing, cells were permeabilized in 0.5% Triton/PBS and washed with PBS, denatured in 2 N HCl, and neutralized by twice washing with 0.1 M borate buffer pH 8.5. Cells on cover slips were washed once with PBS followed by blocking with 5% non-fat dry milk/PBS for 30 minutes. Mouse anti-thymine dimer monoclonal antibody (Cat. No. MC-062, Kamiya Biomedical Company, Seattle, Wash.) was applied to the cover slips for one hour in the dark and at room temperature. Cells were then washed with PBS containing 0.1% Tween-20 and incubated with rabbit anti-mouse IgG-Alexafluor antibody (Invitrogen, Carlsbad, Calif.) followed by two washes with PBS/(0.1%)Tween-20. Cells on coverslips were then washed with PBS, rinsed with water, and mounted on slides using DAPI glycerol mounting solution. Slides were kept at 4° C. before fluorescent microscopic evaluation and measurement of fluorescence intensity with MetaXpress Version: 6.2.1.704 software (Molecular Devices, Sunnyvale, Calif.).
To test for inhibition of nucleotide excision repair, we monitored the cellular removal of UVC-induced cyclobutane pyrimidine dimers (CPDs) in HCT116 cells over a 24-hour period using an immunochemical assay.

serum proteins = assay: ADME screening: serum protein binding; type: in vitro ADME; settings: Table 8
[5] = test system: five CYP450 tested enzymes
HCT116 cells [6] = assay: Clonogenic survival assay, UV treatment; type: cell-based, human; settings: 254 nm UV 0-10 J/m^2; compound 0.5-4 μM
Experimental: UV treatment: HCT116 cells (100-800 cells depending on the UV dose) were plated in triplicate in 60-mm petri dishes. The cells were incubated overnight at 37° C. in a humidified atmosphere containing 5% CO2 to allow for cell attachment. […] Medium was removed again, and cells were exposed to increasing doses (0-10 J/m^2) of UV-C radiation and then incubated for a further 10 days in the presence of inhibitor at 37° C. in a 5% CO2 atmosphere to allow for colony formation. After this period plates were stained with crystal violet and colonies were counted using a Colcount instrument (Oxford Optronix, Abingdon UK). Finally, plating efficiency and surviving fraction were calculated.

[7] = Microsomal stability in vitro (human liver microsomes); settings: for Microsomal stability in vitro CLint (in words): Table 8
[8] = ADME screening: cell permeability and efflux ratio; settings: for Cell permeability (Mean recovery %) (in words): Table 8
[9] = Hepatocyte stability in vitro; type: in vitro ADME; settings: Table 8
ADME screening: LogD = settings: for logD: pH 7.4
ERCC1-XPF complex = target: T2, ERCC1-XPF complex (Homo sapiens, UniProt Q92889); assay: Steady-state intrinsic tryptophan fluorescence quenching binding assay; settings: Table 7; read-out: Kd protein
T2 construct: His6; made in house; host or cells: E. coli BL21 (DE3)
T2 sequence (Q92889 1-916): T1 sequence (Q92889 1-916)
Experimental: Steady-state fluorescence spectra were measured at room temperature on a Perkin-Elmer LS-55 spectrofluorometer (Freemont, Calif.) with 5 nm spectral resolution for excitation and emission using 30-80 nM solution of purified recombinant ERCC1-XPF protein complex. […] In studying the effects of inhibitors on protein fluorescence intensities, additions to protein samples were made from inhibitors stock solutions, keeping the protein dilution below 3%.

DNA = assay: Binding constant to DNA; settings: Table 7

inhibition of ERCC1-XPF endonuclease activity (in words) (ERCC1-XPF)	IC50 (ERCC1-XPF) [µM]	Solubility (in words) [1]	Microsomal stability in vitro CLint (in words) [7]	Cell permeability (Mean recovery %) (in words) [8]	LogD (rating) (ADME screening: LogD; Table 8)	logD (ADME screening: LogD)	SMILES	sensitisation to cyclophosphamide, clonogenic survival (in words) (HCT116 cells [2])	inhibition of cellular removal of CPDs / thymidine dimers (in words) (HCT116 cells [4])	sensitisation to UV radiation, clonogenic survival (in words) (HCT116 cells [6])	other results
higher inhibitory effect	0.167	Good	Low clearance	Low	Good	3.95	COc1ccc2nc3cc(Cl)ccc3c(Nc3ccc(O)c(CN4CCN(CCN(C(C)C)C(C)C)CC4)c3)c2c1 [Gen C-1, 4-((6-Chloro-2-methoxyacridin-9-yl)amino)-2-((4-(2-(diisopropylamino)ethyl)piperazin-1-yl)methyl)-phenol]	significantly sensitised the HCT116 cells to cyclophosphamide; also recorded: significantly sensitized the cells to cyclophosphamide	significant inhibition of removal of CPDs	significant sensitisation effect	cytotoxicity (in words) (HCT116 cells [3]; crystal violet staining, for Gen C1 also colony forming assay): lower cytotoxicity; Serum protein binding (% bound) (serum proteins): (99.5) % bound; Serum protein binding (in words) (serum proteins): Strong binding; CVP inhibition (5 enzyme) (rating) [5]: Good; Hepatocyte stability in vitro CLint (in words) [9]: (medium clearance); LogD (remark in the LogD row) (ADME screening: LogD; Table 8): (partially soluble)
marked capacity to inhibit	0.49	Unstable	Moderate	Low	Good	2.01	CN(C)CCN1CCN(Cc2cc(Nc3c4ccc(Cl)cc4nc4ccc(O)cc34)ccc2O)CC1 [Gen B9]	significantly sensitised the HCT116 cells to cyclophosphamide	significantly inhibited the removal of CPDs	significantly reduced the survival	cells survived (HCT116 cells [3]; 5 μM, 3 days exposure, crystal violet): approximately 95%; inhibition of cellular removal of CPDs / thymidine dimers (in words) (HCT116 cells [4]; listed as B9): significantly different; Kd (ERCC1-XPF complex): 0.085 ± 0.005 µM; Kd (DNA): 1.05 ± 0.05 µM; metabolism on exposure to human liver microsomes (in words) [7]: moderate metabolism; efflux ratio ([8]; not told): > 2
